Test: gradient 5% acetonitrile 3 min, to 50% in 2 min, to 85% in 15 min, held 3 min, 100 µL/min
Details: column: Zorbax Extend-C18 2.1 x 50 mm; eluents: water / acetonitrile, 0.1% formic acid
Method in brief: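 Values are retention times taken from adduct peaks that software picked and an analyst inspected. The pure standards were run as mixtures of ~100 molecules on HPLC linked to a quadrupole time-of-flight mass spectrometer, in positive and negative ionization mode. A Zorbax Extend-C18 column (2.1 × 50 mm, 1.8 μm) was used at 100 μL/min with water and acetonitrile, each including 0.1% formic acid.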

Row | SMILES | RP-LC retention time
1 | Cc1cc(C)cc(NC(=O)Cc2cn(C)c3ncccc23)c1 | 689 s
2 | CC1=C(c2ccc(F)cc2)S(=O)(=O)N=C1N1CCCN(C(=O)C(C)C)CC1 | 751 s
3 | Cc1c(C(=O)OCC(=O)Nc2cccc(Cl)c2)nnn1-c1ccccc1 | 946 s
4 | CCOC(=O)Cc1sc(Nc2c(C)n[nH]c2C)nc1-c1ccccc1 | 688 s
5 | CCc1noc(NC(C)=O)c1-c1ccc(OC)c(S(=O)(=O)Nc2ccc(OC)c(OC)c2)c1 | 688 s
6 | Cc1cc(C)cc(NC(=O)c2cc(C)n3nc(C)cc3n2)c1 | 1160 s
7 | O=C(NC1CCCC1)c1ccc(Cn2nc(N3CCN(c4ccccc4)CC3)ccc2=O)o1 | 844 s
8 | CCc1c(C2CCN(C(=O)Nc3ccc(F)c(Cl)c3)CC2)noc1N | 926 s
9 | O=C(Nc1ccc2c(c1)OCCO2)N1CCC(Cc2noc(C3CCOCC3)n2)C1 (stereo not drawn) | 698 s
10 | CCOC(=O)c1sc(NC(=O)C2CCCO2)nc1-c1ccccc1 (stereo not drawn) | 950 s
11 | COc1ccc2c(c1)C1(CCN(C(=O)c3ccccc3F)C1)C(=O)N2C (stereo not drawn) | 752 s
12 | COc1ccc(-c2cc3nc(C)cc(Nc4ccc(C(N)=O)cc4)n3n2)cc1OC | 586 s
13 | Cc1cccc(-c2noc(C3CCCN3S(=O)(=O)c3c(C)cc(C)cc3C)n2)c1 (stereo not drawn) | 1340 s
14 | CCc1noc(NC(C)=O)c1-c1ccc(C)c(S(=O)(=O)NC2CC2)c1 | 728 s
15 | COCCN1CCC2(CC1)CN(Cc1cc(OC)ccc1OC)Cc1ccccc1O2 | 597 s
16 | O=C(c1cn(-c2ccc(-c3nc(C4CC4)no3)cn2)cn1)N1CCCC1 | 676 s
17 | COc1cccc(CNC(=O)C2(C)CCN(C(=O)Nc3ccccc3C(F)(F)F)CC2)c1 | 806 s
18 | CC(CNC(=O)CCS(=O)(=O)c1ccc2c(c1)CCN2C(=O)C1CC1)c1ccccc1 (stereo not drawn) | 840 s
19 | CCOc1ccc(N2CCn3c2nc2c3c(=O)n(CC(=O)O)c(=O)n2C)cc1 | 689 s
20 | CCOc1ccc(N2CCCCn3c2nc2c3c(=O)n(CCC(C)C)c(=O)n2C)cc1 | 1150 s
21 | CCN1c2ccc(F)cc2C(=O)NC12CCN(C(=O)Cc1ccc(OC)cc1)CC2 | 784 s
22 | Cc1ccnc(N2CCC(C(=O)NCCCN3CCCCC3)CC2)n1 | 559 s

Row | SMILES | RP-LC retention time
23 | COc1ccc(-c2noc(Cn3cnc4c(cnn4-c4ccc(F)cc4)c3=O)n2)cc1OC | 930 s
24 | CCn1c(C(=O)NCCC(C)C)cc2c(=O)oc3ccccc3c21 | 751 s
25 | COc1ccc(C(=O)N2CCN(C(=O)c3nnn4c3COC(c3ccc(F)cc3)C4)CC2)cc1F (stereo not drawn) | 844 s
26 | O=C(c1ccc(F)c(F)c1)N1CCCC1c1nc(-c2ccccc2)no1 (stereo not drawn) | 653 s
27 | CCn1ccc2cc(S(=O)(=O)N3CCCC(C(=O)N4CCN(C)CC4)C3)ccc21 (stereo not drawn) | 646 s
28 | O=c1[nH]c2ccc(NCc3ccc(-c4ccccc4Cl)o3)cc2[nH]1 | 717 s
29 | O=C(NC1CCN(c2cc(-c3ccccc3)[nH]n2)C1)c1ccc(F)c(F)c1 (stereo not drawn) | 739 s
30 | Cc1ccc(-c2cc3c(=O)n(Cc4noc(CN5CCCCCCC5)n4)ccn3n2)cc1C | 806 s
31 | COc1cccc(-n2ccc(=O)c(-c3nc(-c4ccccc4F)no3)n2)c1 | 869 s
32 | Cc1ccc(NC(=O)Cn2nc(N(C)C)c3ccccc3c2=O)cc1Cl | 958 s
33 | Cc1ccc(CCC(=O)Nc2nc(-c3ccc4c(c3)N(C)C(=O)C(C)O4)cs2)cc1 (stereo not drawn) | 1070 s
34 | CSc1nnc(-c2nn(C)c3c2CN(C(=O)c2ccc(C)c(C)c2)CC3)n1C | 770 s
35 | CCc1nncn1C1CCN(S(=O)(=O)c2cccc(F)c2)CC1 | 678 s
36 | Cc1nn(CC(=O)NC(C)c2ccc3c(c2)OCCO3)c(=O)c2c(C)n(-c3ccccc3)nc12 (stereo not drawn) | 827 s
37 | CCNC(=O)c1cn(-c2ccc(SCC(=O)Nc3ccc(Cl)cc3F)nn2)cn1 | 702 s
38 | Cc1ccccc1NS(=O)(=O)c1cc(-c2[nH]ncc2C(=O)N2CCOCC2)oc1C | 678 s
39 | O=S(=O)(c1cccc(-c2nc(-c3ccccc3)no2)c1)N1CCC2(CC1)OCCO2 | 784 s
40 | CCC(=O)N1CCc2cc(N3CC(C(=O)N4CCC(C)CC4)CC3=O)ccc21 (stereo not drawn) | 726 s
41 | CCCN(C)c1nccn2c(=O)n(CC(=O)Nc3ccc(C)c(F)c3)nc12 | 726 s
42 | CCN(CC)C(=O)c1cnc2snc(C)c2c1N1CCC(C(=O)Nc2ccc(C(C)C)cc2)CC1 | 1040 s
43 | COC(=O)c1cccc(NC(=O)NCCn2nnc3cc(S(=O)(=O)N(C)C)ccc32)c1 | 732 s
44 | Cc1ccccc1Nc1c(-c2ccc(N3CCOCC3)cc2)nc2c(C)cccn12 | 729 s

Row | SMILES | RP-LC retention time
45 | CCN(CC)c1ccc(Nc2nc(-c3ccc(F)c(C)c3)cs2)cc1 | 834 s
46 | CC(C)(C)OC(=O)Cn1cnc2c(-c3ccc(F)cc3)csc2c1=O | 709 s
47 | CC1=C(c2ccc(C)c(C)c2)S(=O)(=O)N=C1N1CCCN(C(=O)CC(C)C)CC1 | 915 s
48 | COc1ccccc1CNC(=O)CN1CCN(Cc2ccc(F)cc2)C(=O)C1=O | 732 s
49 | COc1cccc(-c2csc(Cc3nc(-c4cccc(C)c4)no3)n2)c1 | 1250 s
50 | CCCCC(C=O)NC(=O)[C@H](CC(C)C)NC(=O)OCc1ccccc1 (stereo partly drawn) | 970 s
51 | Cc1ccc(S(=O)(=O)NC2CCN(c3ncnc4c3CCC4)C2)cc1 (stereo not drawn) | 628 s
52 | Cc1ccc(-c2nc(C3CC(=O)N(c4ccc(Cl)cc4)C3)no2)cc1 (stereo not drawn) | 978 s
53 | CCCN(CC1CCOC1)C(=O)c1cc(Cl)ccc1F (stereo not drawn) | 844 s
54 | CN(C(=O)CN1C(=O)NC2(CCC(C(C)(C)C)CC2)C1=O)c1ccccc1 (stereo not drawn) | 979 s
55 | Cc1cccc(-c2noc(Cc3nc(-c4ccc(F)cc4)cs3)n2)c1 | 1260 s
56 | Cc1ccc(Cn2nc3n(Cc4ccc(F)cc4)c(=O)c4nn(C)cc4n3c2=O)cc1 | 952 s
57 | CCc1onc(C)c1C1CCCN1C(=O)c1c(Cl)cnn1CC (stereo not drawn) | 773 s
58 | CCc1nnc(-c2ccc3ccn(CC(=O)Nc4ccccc4C)c3c2)o1 | 826 s
59 | Cc1ccccc1NC(=O)c1cc(C)n2nc(-c3ccsc3)cc2n1 | 1240 s
60 | Cc1cc(=O)n(CC(=O)Nc2ccccc2F)c(N)n1 | 581 s
61 | Cc1ccccc1Nc1c(-c2ccc(N(C)C)cc2)nc2ccccn12 | 767 s
62 | CNC(=O)NC(=O)COc1cc(=O)n2cccc(C)c2n1 | 579 s
63 | CC(C)CC(NC(=O)Cc1cccs1)C(=O)Nc1nc2ccccc2[nH]1 (stereo not drawn) | 716 s
64 | O=C(Cc1ccsc1)NCc1cnoc1-c1ccc(F)cc1 | 844 s
65 | Cc1ccc2cc(CCC(=O)N3CCC4(CC3)OCCO4)c(=O)[nH]c2c1 | 688 s
66 | Cc1cccc(-c2nnc(C)c(N3CCC4(CC3)OCCO4)n2)c1 | 673 s

Row | SMILES | RP-LC retention time
67 | COc1ccc(Cl)c(Nc2nc3ccccc3nc2NS(=O)(=O)c2cccc(NC(=O)C(C)(C)N)c2)c1 | 879 s
68 | CSc1ccccc1C(=O)NCC1(c2ccc(F)cc2)CC1 | 875 s
69 | O=c1n(Cc2ccccc2Cl)nc2c(S(=O)(=O)N3CCc4ccccc4C3)cccn12 | 1030 s
70 | COc1ccc(C2CCN(C(=O)c3ccoc3)CC2)cc1 | 853 s
71 | O=C(C1CCN(c2cnc3nccnc3c2)CC1)N1CCN(c2ccc(F)cc2)CC1 | 723 s
72 | CCc1nc(-c2csc(S(=O)(=O)N3CCCC(C(=O)N4CCOCC4)C3)c2)no1 (stereo not drawn) | 796 s
73 | CCOc1ccc(S(=O)(=O)N2CCCC2c2nc(-c3cccc(Cl)c3)no2)cc1 (stereo not drawn) | 1230 s
74 | CO/N=C1/CN(c2nc3c(cc2F)c(=O)c(C(=O)O)cn3C2CC2)CC1CN (stereo not drawn) | 636 s
75 | COc1ccc(S(=O)(=O)Nc2ccc(-c3cn4ccc(C)nc4n3)cc2)cc1OC | 627 s
76 | CCn1nccc1C(=O)Nc1nnc(-c2ccsc2)o1 | 641 s
77 | CNC(=O)C1CCN(Cc2cc3ccccc3n2Cc2cccc(Cl)c2)CC1 | 683 s
78 | COC(=O)[C@H](Cc1ccc(C#Cc2ccccc2)cc1)NC(=O)C[C@H]1CCCN(C(=N)N)C1 | 772 s
79 | CCOc1ccccc1NC(=O)CSc1nnc2c3cc(-c4ccc(F)cc4)nn3ccn12 | 948 s
80 | CN(C)C(=O)c1csc(S(=O)(=O)N2CCC(C(=O)NC3CCCC3)CC2)c1 | 696 s
81 | CCCc1noc(-c2cccnc2N2CCCN(Cc3ccc(C)cc3)CC2)n1 | 749 s
82 | CSc1ccc(-c2noc(Cc3nnc(-c4cccc(Br)c4)o3)n2)cc1 | 1170 s
83 | O=C(NCc1cc(F)ccc1F)c1ccc2ncnc(N3CCCC3)c2c1 | 650 s
84 | CCCc1cc(N2CCN(C(=O)C3CC3)CC2)nc2nncn12 | 586 s
85 | CCc1ccc(NC(=O)N2CCC(n3cnnc3C3CC3)C2)cc1 (stereo not drawn) | 665 s
86 | COc1cccc(-c2nc(C3CC(=O)N(c4ccccc4)C3)no2)c1 (stereo not drawn) | 943 s
87 | CCCCn1c(=O)c2ccccc2n(Cc2nc(-c3ccc(SC)cc3)no2)c1=O | 1250 s
88 | CCn1cc(C2=CCN(C(=O)Nc3ccc4c(c3)OCCO4)CC2)c2cccnc21 | 789 s
